Several values for one entry are separate records, joined by “and”; a condition that tells them apart may be missing. Identical values can stand only once. Entries after “also recorded” stand apart in the source; their conditions may differ.
Assays:
Nrf2-ARE [1] = experiment: Nrf2 transcriptional activation, Nrf2/ARE-luciferase reporter cells; assay type: cell-based; conditions: for CD (concentration required to double the specific luciferase reporter activity): 24 h treatment; for lowest concentration with significant induction of the Nrf2 transcriptional pathway: tested at 1, 5, 10, 25, 50 μM for 24 h
Procedure: The Nrf2-ARE activating effect of selected 4a, 4d and 4f was evaluated in vitro using a cell-based luciferase assay in the AREc32 cell line, tert-butylhydroquinone (TBHQ) being used as positive control.
Then, AREc32 cells were treated with increasing concentrations of each compound (1, 5, 10, 25, 50 μM) for 24 h, and luciferase activity was then measured.
The evaluation of Nrf2 transcriptional activation was then performed using non-cytotoxic concentrations of the tested compounds according to the protocol previously described. Briefly, the cells were seeded as described for the MTT assay, except that white 96-well culture plates were used. After 48 h of incubation, the cells were treated with the tested compounds or DMSO (0.1%). After 24 h of treatment, luciferase activity was measured using the Bright–Glo Luciferase Assay System (Promega, Madison, WI, USA) according to the manufacturer’s instructions. All reactions were performed in duplicate and repeated in at least four different cultures.

[2] = Oxygen radical absorbance capacity (ORAC) assay; conditions: Trolox Equivalents, mean (n = 3) ± SEM
Procedure: Briefly, in a black 96-well microplate (Nunc), fluorescein and the tested compound were incubated for 15 min at 37 °C. […] All reactions were performed in triplicate, and at least three different assays were performed for each sample.

eqBChE = target: T1, eqBChE (Equus caballus, UniProt P81908); experiment: biochemical; assay type: biochemical; conditions: for IC50: read-out: eqBChE IC50 ± SEM; for inhibition at 10 µM: read-out: eqBChE % inhibition at 10 μM (IC50 not given)
T1 construct: BuChE from horse serum; purchased Sigma-Aldrich; host or cells: horse serum
T1 sequence (P81908 whole entry): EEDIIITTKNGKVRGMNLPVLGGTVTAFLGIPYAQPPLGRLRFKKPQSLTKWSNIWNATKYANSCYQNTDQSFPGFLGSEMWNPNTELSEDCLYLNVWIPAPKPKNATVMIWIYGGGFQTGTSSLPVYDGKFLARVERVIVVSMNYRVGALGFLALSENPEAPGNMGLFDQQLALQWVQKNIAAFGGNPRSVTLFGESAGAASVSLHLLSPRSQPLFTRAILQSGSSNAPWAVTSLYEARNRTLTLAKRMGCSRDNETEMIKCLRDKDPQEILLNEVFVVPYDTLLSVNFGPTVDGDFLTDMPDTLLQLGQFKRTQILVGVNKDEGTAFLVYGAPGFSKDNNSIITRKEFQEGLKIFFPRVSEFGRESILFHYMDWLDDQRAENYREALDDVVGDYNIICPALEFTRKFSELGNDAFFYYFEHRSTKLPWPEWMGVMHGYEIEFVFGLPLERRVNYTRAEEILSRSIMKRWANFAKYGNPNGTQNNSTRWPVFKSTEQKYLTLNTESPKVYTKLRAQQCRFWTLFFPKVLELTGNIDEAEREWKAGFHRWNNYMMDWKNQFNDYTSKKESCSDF

calcium channel = experiment: Calcium channel blockade, FLIPR calcium indicator 6 in SH-SY5Y cells; assay type: cell-based; conditions: KCl/CaCl2-induced calcium flux
Procedure: Assessment of calcium channel blockade of compounds 4a–i was performed according to the previously described protocol using the FLIPR calcium indicator 6 [59]. Briefly, FLIPR-loaded SH-SY5Y cells were exposed for 10 min to a 10 μm concentration of the tested compounds and to nimodipine used as a reference. 0.1% DMSO was used as a vehicle. […] Data were collected in three independent experiments with eight technical replicates per experiment. Outliers detected by the Grubbs test were excluded from further analysis.

EeAChE = target: T2, EeAChE (Electrophorus electricus, UniProt O42275); experiment: biochemical; conditions: for inhibition at 10 µM: read-out: EeAChE % inhibition at 10 μM (IC50 not given)
T2 construct: purified AChE from Electrophorus; purchased Sigma-Aldrich Type V-S; host or cells: natural enzyme purified from Electrophorus electricus
T2 sequence (O42275 24-633): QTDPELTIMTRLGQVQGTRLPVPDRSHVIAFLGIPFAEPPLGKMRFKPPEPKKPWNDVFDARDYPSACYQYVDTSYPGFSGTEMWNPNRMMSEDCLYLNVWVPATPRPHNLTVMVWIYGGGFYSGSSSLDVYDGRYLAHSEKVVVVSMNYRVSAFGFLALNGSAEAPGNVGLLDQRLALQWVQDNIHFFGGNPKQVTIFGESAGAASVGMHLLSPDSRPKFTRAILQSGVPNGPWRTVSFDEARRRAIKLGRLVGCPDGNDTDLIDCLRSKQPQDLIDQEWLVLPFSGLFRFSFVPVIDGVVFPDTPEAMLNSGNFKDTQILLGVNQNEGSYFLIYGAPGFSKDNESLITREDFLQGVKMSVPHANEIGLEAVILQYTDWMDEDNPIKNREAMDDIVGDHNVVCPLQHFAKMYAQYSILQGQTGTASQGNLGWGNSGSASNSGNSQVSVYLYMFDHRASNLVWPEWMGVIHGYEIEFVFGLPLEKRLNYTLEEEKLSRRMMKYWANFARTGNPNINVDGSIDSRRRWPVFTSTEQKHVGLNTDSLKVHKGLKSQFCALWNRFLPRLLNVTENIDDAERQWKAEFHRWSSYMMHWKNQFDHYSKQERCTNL

Nrf2-ARE [3] = test system: Nrf2-ARE; design: method as in PMID 27736061; conditions: cited from earlier work

Structure (SMILES) | CD (concentration required to double the specific luciferase reporter activity) (Nrf2-ARE [1]) | ORAC [2] | Calcium Antagonism (% Inhibition at 10 μM) ± SEM (calcium channel) | inhibition at 10 µM (EeAChE) | inhibition at 10 µM (eqBChE) | other results
COC(=O)C1=C(C)NC(C)=C(C(=O)OC)C1c1ccc(NS(=O)(=O)c2ccccc2)cc1 [Compound 4a, Dimethyl 2,6-Dimethyl-4-(4-(phenylsulfonamido)phenyl)-1,4-dihydropyridine-3,5-dicarboxylate] | 19.3 µM and 19.3 ± 6.7 µM | 1.59 TE and 1.59 ± 0.2 TE | 32 ± 5.1% | < 50% | – | lowest concentration with significant induction of the Nrf2 transcriptional pathway (Nrf2-ARE [1]): 25 µM; selectivity AChE vs BChE (eqBChE): totally selective to BChE; also recorded: fully selective inhibition of BChE; IC50 (eqBChE): 5 ± 0.4 µM
COC(=O)C1=C(C)NC(C)=C(C(=O)OC)C1c1ccc(NS(=O)(=O)c2ccc(C)cc2)cc1 [Compound 4b, Dimethyl 2,6-Dimethyl-4-(4-((4-methylphenyl)sulfonamido)phenyl)-1,4-dihydropyridine-3,5-dicarboxylate] | – | 1.96 ± 0.1 TE | 37 ± 5.1% | < 50% | < 50% | –
COC(=O)C1=C(C)NC(C)=C(C(=O)OC)C1c1ccc(NS(C)(=O)=O)cc1 [Compound 4c, Dimethyl 2,6-Dimethyl-4-(4-(methylsulfonamido)phenyl)-1,4-dihydropyridine-3,5-dicarboxylate] | – | 3.01 TE and 3.01 ± 0.1 TE | – | < 50% | < 50% | –
CCOC(=O)C1=C(C)NC(C)=C(C(=O)OCC)C1c1ccc(NS(=O)(=O)c2ccccc2)cc1 [Compound 4d, Diethyl 2,6-Dimethyl-4-(4-(phenylsulfonamido)phenyl)-1,4-dihydropyridine-3,5-dicarboxylate] | >50 µM | 1.67 TE and 1.67 ± 0.0 TE | 22 ± 4.7% | < 50% | – | Nrf2 transcriptional activation (luciferase activity) (Nrf2-ARE [1]; 1-50 μM, 24 h): no significant activity; fold less active than tacrine on eqBChE (eqBChE): 135 fold; selectivity AChE vs BChE (eqBChE): totally selective to BChE; also recorded: fully selective inhibition of BChE; IC50 (eqBChE): 0.3 ± 0.1 µM
CCOC(=O)C1=C(C)NC(C)=C(C(=O)OCC)C1c1ccc(NS(=O)(=O)c2ccc(C)cc2)cc1 [Compound 4e, Diethyl 2,6-Dimethyl-4-(4-((4-methylphenyl)sulfonamido)phenyl)-1,4-dihydropyridine-3,5-dicarboxylate] | – | 2.07 ± 0.3 TE | 26 ± 4.1% | < 50% | < 50% | –
CCOC(=O)C1=C(C)NC(C)=C(C(=O)OCC)C1c1ccc(NS(C)(=O)=O)cc1 [Compound 4f, Diethyl 2,6-Dimethyl-4-(4-(methylsulfonamido)phenyl)-1,4-dihydropyridine-3,5-dicarboxylate] | 44.3 µM and 44.3 ± 4.7 µM | 1.30 TE and 1.30 ± 0.1 TE | 27 ± 3.5% | – | – | lowest concentration with significant induction of the Nrf2 transcriptional pathway (Nrf2-ARE [1]): 50 µM; IC50 (eqBChE): 8.7 ± 0.6 µM; IC50 (EeAChE; read-out: EeAChE IC50 ± SEM): 12.6 ± 1.2 µM
CC1=C(C(=O)OC(C)C)C(c2ccc(NS(=O)(=O)c3ccccc3)cc2)C(C(=O)OC(C)C)=C(C)N1 [Compound 4g, Diisopropyl 2,6-Dimethyl-4-(4-(phenylsulfonamido)phenyl)-1,4-dihydropyridine-3,5-dicarboxylate] | – | 0.86 TE and 0.86 ± 0.1 TE | 50 ± 4.1% | < 50% | < 50% | –
CC1=C(C(=O)OC(C)C)C(c2ccc(NS(=O)(=O)c3ccc(C)cc3)cc2)C(C(=O)OC(C)C)=C(C)N1 [Compound 4h, Diisopropyl 2,6-Dimethyl-4-(4-((4-methylphenyl)sulfonamido)phenyl)-1,4-dihydropyridine-3,5-dicarboxylate] | – | 1.59 ± 0.1 TE | 51 ± 5.3% | < 50% | < 50% | –
CC1=C(C(=O)OC(C)C)C(c2ccc(NS(C)(=O)=O)cc2)C(C(=O)OC(C)C)=C(C)N1 [Compound 4i, Diisopropyl 2,6-Dimethyl-4-(4-(methylsulfonamido)phenyl)-1,4-dihydropyridine-3,5-dicarboxylate] | – | 1.11 ± 0.3 TE | 25 ± 5.1% | < 50% | < 50% | –
CC(C)(C)c1cc(O)ccc1O [TBHQ, tert-butylhydroquinone, reference compound] | 1.2 µM and 1.2 ± 0.2 µM | – | – | – | – | –
COc1ccc2[nH]cc(CCNC(C)=O)c2c1 [melatonin] | – | – | – | – | – | CD (Nrf2-ARE [3]): 60 µM
COCCOC(=O)C1=C(C)NC(C)=C(C(=O)OC(C)C)C1c1cccc([N+](=O)[O-])c1 (centres unmarked) [nimodipine, reference compound] | – | – | 52 ± 4.1% | – | – | –

Source: paper PMC10253445, “Exploring the Potential of Sulfonamide-Dihydropyridine Hybrids as Multitargeted Ligands for Alzheimer’s Disease Treatment” (International Journal of Molecular Sciences, 2023)
